According to patent US20080096905A1, “Process For Preparing Pyrido[2,3-D]Pyrimidin-7-One And 3,4-Dihydropyrimido{4,5-D}Pyrimidin-2(1H)-One Derivatives” (Glaxo Group Limited, priority 2005, published 2008):

Row | Structure (SMILES) | melting point [°C]
1 | Cc1c(F)cc(C(=O)NC2CC2)cc1-c1nc(NC(CO)CO)nc2c1ccc(=O)n2-c1c(F)cccc1F [Example 49, N-cyclopropyl-3-(8-(2,6-difluorophenyl)-2-{[2-hydroxy-1-(hydroxymethyl)ethyl]amino}-7-oxo-7,8-dihydropyrido[2,3-d]pyrimidin-4-yl)-5-fluoro-4-methylbenzamide] | 214.2 to 217.5
2 | CSc1nc(-c2cc(C(=O)N(C)C)ccc2C)c2c(n1)N(c1c(F)cccc1F)C(=O)NC2 [Example 73, 3-[8-(2,6-difluorophenyl)-2-(methylthio)-7-oxo-5,6,7,8-tetrahydropyrimido[4,5-d]pyrimidin-4-yl]-N,N,4-trimethylbenzamide] | 144 to 147
